For series [1], the system named is human colon carcinoma Caco-2 cells. Format: cell-based. How it is done: Caco-2 cells and IEC-6 cells were seeded at a density of 20,000 and 7000 cells/well, respectively, in 96-well plates, and allowed to adhere for 48 h, when cells were 75% confluent. The exosomes were labeled with the fluorophore, FM 4-64 (Molecular Probes). One microliter of a stock solution of FM 4-64 (5.9 mmol/L) was added to 1 mL of exosome suspension and incubated for 15 min at 37° C., and excess FM 4-64 was removed by ultracentrifugation at 120,000 3 g at 4° C. for 90 min. […] Assays were calibrated by quantifying the fluorescence of a known mass of exosomes labeled with FM 4-64. Exosome uptake was analyzed by measuring the cell fluorescence at 515 (excitation) and 640 nm (emission) using a Biotek FLx800 plate reader (BioTek Instru-ments). Fluorescence readings were corrected for cell autofluorescence by subtracting signals measured in cells incubated with exosome-depleted media. […] In Caco-2 cells, exosome uptake was linear for up to 120 min if transport was measured using nonsaturating substrate concentrations (FIG. 33A): y=0.0012x+0.014 (r2=0.97; P<0.05). In IEC-6 cells exosome uptake was linear for only up to 60 min if transport was measured using nonsaturating substrate concentrations (FIG. 33B): y=0.0033x+0.033 (r2=0.75; P<0.05). […]

Series [2] concerns human small intestinal cells (FHs cells). The series can be described thus: Uptake of milk exosomes into FH cells (protease, glycosidase, lectin, sonication). It is filed as cell-based.
In the next series the test system is Caco-2 cells. Format: in vitro ADME, human. On the procedure: In transwell studies Caco-2 cells were seeded at a density of 9000 cells/well with […] of media in 96-well polycarbonate plates with a pore size of […] (EMD Millipore). The cells were allowed to grow a differentiated monolayer for 21-24 d (33). Caco-2 cell monolayer integrity was formally confirmed using the Lucifer yellow (LY) rejection assay according to the manufacturer's instructions (33). LY fluorescence was measured in the transwell apical and basolateral chambers after 1 h of incubation at 37° C. In parallel experiments, Caco-2 cells were cultured in exosome-depleted media to which milk exosomes were added back to produce a concentration of 275 mg/100 mL exosomal protein in either the upper, apical chamber or the lower, basolateral chamber. Controls were cultured in exosome-depleted media. Aliquots of media were collected from the upper chamber and bottom chamber after 2 h of incubation for analysis of microRNAs. Twenty-five attomoles of internal standard (miSPIKE Synthetic RNA; IDT Technologies) was added to samples before microRNA extraction and subsequent analysis of miR-29b and miR-200c in transwell chambers by quantitative real-time PCR and microRNA-specific primers; miSpike was also used for PCR calibration. Values were corrected for the internal standard to normalize for extraction efficiency.

A further series concerns HUVEC. The series can be described thus: Cell death (MTT viability) assay with puromycin-loaded exosomes. It is filed as cell-based, human. The following applies: 1,837 μM puromycin added directly to media, 24 h. How it is done:
The possibility that adherence to cells, rather than uptake into cells, accounted for cell fluorescence was dismissed based on the following cell death-based and enhanced green fluorescent protein (eGFP) protocols. Milk exosomes were suspended in BTXpress electroporation buffer (BTX, Holliston, MA; final concentration 100 […]), containing zero (negative control), 56 μM, or 223 μM puromycin in a 4-mm electroporation cuvette. Exosomes were loaded with puromycin or with a mammalian eGFP expression plasmid by electroporation in a Gene Pulser Xcell electroporator (Bio-Rad) using 250 V, 950 μF, and infinite resistance. Extra-exosomal puromycin was removed by ultracentrifugation and washing, and exosomes were resuspended in 300 μl of exosome-depleted cell culture media. In cell death assays, 100 μl of the suspension were added per well in a 96-well cell culture plate (containing ˜200 μl of media) and cells were cultured for 24 h, when viability was assessed using the MTT assay. Positive controls were created by adding puromycin directly to the media without encapsulation in exosomes, thereby producing a concentration of 1,837 μM puromycin. In eGFP assays, cells were cultured in media in which eGFP-loaded milk exosomes were substituted for exosomes in fetal bovine serum. Expression of eGFP was assessed by using confocal microscopy 3 days after initiation of cultures.

Series [3] concerns human macrophage U937 cells. In words: Uptake of milk exosomes into U937 cells. It is filed as cell-based. To be noted: exosomes treated with the labelled agent.
Series [4] deals with human umbilical vein endothelial cells (HUVEC). In words: Uptake of fluorophore-labeled milk exosomes into HUVECs. It is filed as cell-based. The following applies: for effect on exosome uptake in HUVEC cells: inhibitors or 150 mmol/L carbohydrate competitors.
Setting [5] is: FH cells treated with the labelled agent.
Setting [6] is: exosomes treated with the labelled agent.

For the compound “Glu-C: Serine protease cleaving at glutamic acid and aspartic acid”, the “effect on exosome uptake in Caco-2 cells” value in series [1] (Caco-2) is on record as “significant decrease in exosome transport”. Besides, the “transport rates (Vmax)” value in series [1] (exosomes treated with the labelled protease, intestinal transport) stood at 19±0.3 arbitrary units.
Consider “SBA: Lectin binding terminal N-acetylgalactosamine and galactopyranosyl residues”, for which the “effect on exosome uptake in FH cells” value in series [2] (setting [5]) and in series [2] (setting [6]) was “decreases the uptake” throughout.
Lucifer yellow: in the series with Caco-2 cells, the rejection rate was found to be 99.8%.
Turning to `COc1ccc(C[C@H](N)C(=O)N[C@H]2[C@@H](O)[C@H](n3cnc4c(N(C)C)ncnc43)O[C@@H]2CO)cc1` [puromycin], the viability in the series with HUVEC was 37 % of puromycin-free controls.
Regarding β-galactosidase, the “effect on exosome uptake in U937 cells” value in series [3] is “decrease in exosome uptake”. Moreover, the “effect on exosome uptake in FH cells” value in series [2] (setting [5]) and in series [2] (setting [6]) was “decrease in exosome uptake” in each case.
Consider `C=C1[C@@H](C)[C@H]2[C@H](Cc3ccccc3)NC(=O)[C@]23[C@H](OC(C)=O)/C=C/[C@@](C)(O)C(=O)[C@@H](C)C/C=C/[C@H]3[C@@H]1O` [cytochalasin D], for which the “decrease of exosome transport compared with controls” value in series [4] (HUVEC, exosomes treated with proteinase K, or transport in presence of the labelled agent) turned out to be 50%. The exosome uptake in series [4] (cells treated with 5 μg/ml cytochalasin D) was 63.5±21.3 % of controls; in series [4] (cells treated with 10 μg/ml cytochalasin D), 40.8±22.0 % of controls. In addition, the “effect on exosome uptake in HUVEC cells” value in series [4] is reported as “decrease in exosome uptake”.
On to `C[C@H]1CCC/C=C/[C@@H]2C[C@H](O)C[C@H]2[C@H](O)/C=C/C(=O)O1` [BFA, brefeldin A], for which, in series [4], the “effect on exosome uptake in HUVEC cells” value is given as “decrease in exosome uptake”.
Consider “PHA-E: Lectin binding terminal galactose, N-acetylglucosamine and mannose residues of complex glycans”, for which the “effect on exosome uptake in FH cells” value in series [2] (setting [5]) and in series [2] (setting [6]) was “decreases the uptake” each time.
With `O=C[C@H](O)[C@@H](O)[C@@H](O)[C@H](O)CO` [D-galactose], the “effect on exosome uptake in HUVEC cells” value in series [4] was “significant decrease in exosome uptake”.

(Values after patent US11883434B2, “Extracellular vesicles and methods of using” (NUtech Ventures, priority 2017, dated 2024).)
